# Assay results as given in patent publication US10745401B2, “Condensed lactam derivative” (Sumitomo Dainippon Pharma Co., Ltd., priority 2018, dated 2020).
# Tests used:
# human 5-HT1A receptor [1] = target: T1, human 5-HT1A receptor (Homo sapiens (Human), UniProt P08908); experiment: Test 1: binding activity for human 5-HT1A receptor ([3H]8-OH-DPAT, CHO cell membrane fraction)
# In short: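 Membranes incubated with [3H]8-OH-DPAT and compound for 60 min at room temperature, then filtered on polyethylenimine-coated glass-fibre plates and counted by liquid scintillation. IC50 from Hill analysis; Ki = IC50/(1+S/Kd), Kd from saturation binding on the same membranes.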
# human 5-HT2A receptor [2] = target: T2, human 5-HT2A receptor (Homo sapiens (Human), UniProt P28223); experiment: Test 1: binding activity for human 5-HT2A receptor ([3H]Ketanserin, CHO cell membrane fraction)
# Method: Test 1: Evaluation of Binding Activity for Human 5-HT1A Receptor, Human 5-HT2A Receptor, and Human D2 Receptor
# Binding affinity of the present compound for human 5-HT1A receptor, human 5-HT2A receptor, and human D2 receptor was measured by the following procedures.
# Each mixture was incubated at room temperature for 60 minutes. Then, the mixture was added quickly on a glassfiber filter plate (Multiscreen FB, Millipore, Inc.) coated with 0.3% aqueous polyethylenimine, and vacuum-filtered. Radioactivity remaining on the filter was measured with a liquid scintillation counter (PerkinElmer, Inc.). Binding inhibition rate was calculated from the following formula.
# Ki of each compound was calculated from the following formula. Binding inhibition constant (Ki)=IC50/(1+S/Kd) wherein S is concentration of ligand; Kd is a binding dissociation constant of ligand to membrane, which is calculated from a saturated binding experiment conducted with the same cell membrane. A small Ki value means strong binding ability to a receptor.
# human 5-HT1A receptor [3] = target: T1, human 5-HT1A receptor; experiment: Test 2: agonist activity for human 5-HT1A receptor ([35S]GTPγS binding); format: biochemical; details: for EC50: [35S]GTPγS binding, concentration at which half the activity of Emax was obtained; for Emax at 10 µM: agonist activity in the presence of 10 μM of compound, relative to 100 μmol/L 5-HT
# In short: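 [35S]GTPγS binding read-out: after 60 min at room temperature with test compound in GDP buffer, human 5-HT1A receptor CHO membranes were vacuum-filtered and retained radioactivity scintillation-counted. Agonist activity calculated by formula.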
# human 5-HT2A receptor [4] = target: T2, human 5-HT2A receptor; experiment: Test 3: antagonist activity for human 5-HT2A receptor (aequorin luminescence, CHO-K1 cells); format: cell-based; details: CHO-K1 cells, 1 nmol/L 5-HT
# Method: Test 3: Evaluation of Antagonist Activity for Human 5-HT2A Receptor
# Aequorin, Gα16 protein, and each receptor were transiently expressed in CHO-K1 cells (Chinese hamster ovary). […] Each compound dissolved in DMSO was added thereto, and changes in luminescence were measured by FDSS/μCELL functional drug screening system (Hamamatsu Photonics K.K.). Antagonist activity was calculated from the following formula. Antagonist activity (%)=100×{(Luminescence of well in the presence of 1 nmol/L 5-HT−Luminescence of well containing solvent)−(Luminescence of well in the presence of test compound and 1 nmol/L 5-HT−Luminescence of well containing solvent)}/(Luminescence of well in the presence of 1 nmol/L 5-HT−Luminescence of well containing solvent)
# [5] = Test 4: metabolic stability test in human hepatic microsome; format: in vitro ADME; details: 0.1 mg/mL microsome, 0.1 μmol/L compound, 37° C., 30 minutes
# In short: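 LC-MS quantified remaining parent after 30 min, 37° C, in pH 7.4 25 mmol/L phosphate containing 0.1 mg/mL human hepatic microsomes, 3.2 mmol/L NADPH and 0.1 μmol/L test compound. Value given as −LN(residual ratio)/30/0.1, mL/min/mg protein.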
# hERG channel = hERG channel (Homo sapiens (Human), UniProt Q12809); experiment: Test 6-1: inhibitory activity for hERG channel (auto patch clamp, Qpatch); format: cell-based; details: for IC50: whole cell auto patch clamp, hERG-CHO cells, read-out: hERG inhibition IC50
# In short: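 Whole-cell patch clamp on an automated system using CHO cells stably expressing human hERG (IKr); 15 s pulse interval. Four increasing compound concentrations applied cumulatively; mean peak tail current from last 3 stimulations per concentration used. IC50 from inhibition versus pre-compound current, fitted by Hill equation.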
# human D2 receptor = human D2 receptor (Homo sapiens (Human), UniProt P14416); experiment: Test 1: binding activity for human D2 receptor ([3H]Spiperone, CHO cell membrane fraction); details: for Ki: human D2 receptor, [3H]Spiperone; for D2 Ki/5-HT1A Ki / D2 Ki/5-HT2A Ki: selectivity ratio
# In short: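 Compound displacement of [3H]ketanserin at 5-HT2A or [3H]spiperone at D2 was measured in CHO membrane fractions after 60 min at room temperature, with filtration and scintillation counting. IC50 was converted to Ki by Cheng–Prusoff using ligand concentration and Kd from saturation binding.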
# T2 sequence (P28223 whole entry): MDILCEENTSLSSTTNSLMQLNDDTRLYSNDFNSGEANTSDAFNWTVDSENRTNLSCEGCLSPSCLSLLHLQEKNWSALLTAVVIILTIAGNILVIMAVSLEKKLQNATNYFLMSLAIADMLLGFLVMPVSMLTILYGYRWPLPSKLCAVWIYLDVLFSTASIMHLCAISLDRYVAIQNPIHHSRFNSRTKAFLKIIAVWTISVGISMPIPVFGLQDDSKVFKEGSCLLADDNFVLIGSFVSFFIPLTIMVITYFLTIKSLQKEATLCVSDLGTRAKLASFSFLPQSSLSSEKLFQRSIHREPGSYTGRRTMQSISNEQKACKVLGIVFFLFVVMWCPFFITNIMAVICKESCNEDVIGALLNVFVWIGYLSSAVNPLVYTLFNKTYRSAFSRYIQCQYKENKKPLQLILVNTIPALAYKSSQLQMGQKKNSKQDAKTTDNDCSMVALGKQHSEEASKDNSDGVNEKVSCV
# human D2 receptor, sequence (P14416 whole entry): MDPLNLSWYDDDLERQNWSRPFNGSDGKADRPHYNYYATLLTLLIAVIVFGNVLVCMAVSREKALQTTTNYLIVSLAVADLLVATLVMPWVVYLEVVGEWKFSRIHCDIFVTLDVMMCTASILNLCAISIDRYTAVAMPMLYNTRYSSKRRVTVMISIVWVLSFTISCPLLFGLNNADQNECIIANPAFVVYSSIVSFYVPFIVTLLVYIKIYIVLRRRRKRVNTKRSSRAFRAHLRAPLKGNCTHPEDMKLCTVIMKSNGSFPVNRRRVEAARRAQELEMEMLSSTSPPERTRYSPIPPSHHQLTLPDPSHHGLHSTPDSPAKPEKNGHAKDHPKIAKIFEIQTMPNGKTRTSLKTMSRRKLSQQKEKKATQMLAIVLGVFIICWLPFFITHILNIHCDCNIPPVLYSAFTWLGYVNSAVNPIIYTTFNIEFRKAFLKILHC
# T1 sequence (P08908 whole entry): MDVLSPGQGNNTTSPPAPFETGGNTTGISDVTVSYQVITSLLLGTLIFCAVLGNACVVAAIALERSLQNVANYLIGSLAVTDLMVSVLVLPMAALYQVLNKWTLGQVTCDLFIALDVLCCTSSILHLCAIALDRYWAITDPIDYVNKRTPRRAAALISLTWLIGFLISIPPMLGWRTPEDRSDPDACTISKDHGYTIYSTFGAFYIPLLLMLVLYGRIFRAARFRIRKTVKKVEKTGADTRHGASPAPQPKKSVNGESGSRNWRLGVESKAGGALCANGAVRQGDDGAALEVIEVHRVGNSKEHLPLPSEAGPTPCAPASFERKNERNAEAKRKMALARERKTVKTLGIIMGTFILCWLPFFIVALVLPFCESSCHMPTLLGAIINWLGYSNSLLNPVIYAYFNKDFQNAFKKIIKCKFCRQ
# hERG channel, sequence (Q12809 whole entry): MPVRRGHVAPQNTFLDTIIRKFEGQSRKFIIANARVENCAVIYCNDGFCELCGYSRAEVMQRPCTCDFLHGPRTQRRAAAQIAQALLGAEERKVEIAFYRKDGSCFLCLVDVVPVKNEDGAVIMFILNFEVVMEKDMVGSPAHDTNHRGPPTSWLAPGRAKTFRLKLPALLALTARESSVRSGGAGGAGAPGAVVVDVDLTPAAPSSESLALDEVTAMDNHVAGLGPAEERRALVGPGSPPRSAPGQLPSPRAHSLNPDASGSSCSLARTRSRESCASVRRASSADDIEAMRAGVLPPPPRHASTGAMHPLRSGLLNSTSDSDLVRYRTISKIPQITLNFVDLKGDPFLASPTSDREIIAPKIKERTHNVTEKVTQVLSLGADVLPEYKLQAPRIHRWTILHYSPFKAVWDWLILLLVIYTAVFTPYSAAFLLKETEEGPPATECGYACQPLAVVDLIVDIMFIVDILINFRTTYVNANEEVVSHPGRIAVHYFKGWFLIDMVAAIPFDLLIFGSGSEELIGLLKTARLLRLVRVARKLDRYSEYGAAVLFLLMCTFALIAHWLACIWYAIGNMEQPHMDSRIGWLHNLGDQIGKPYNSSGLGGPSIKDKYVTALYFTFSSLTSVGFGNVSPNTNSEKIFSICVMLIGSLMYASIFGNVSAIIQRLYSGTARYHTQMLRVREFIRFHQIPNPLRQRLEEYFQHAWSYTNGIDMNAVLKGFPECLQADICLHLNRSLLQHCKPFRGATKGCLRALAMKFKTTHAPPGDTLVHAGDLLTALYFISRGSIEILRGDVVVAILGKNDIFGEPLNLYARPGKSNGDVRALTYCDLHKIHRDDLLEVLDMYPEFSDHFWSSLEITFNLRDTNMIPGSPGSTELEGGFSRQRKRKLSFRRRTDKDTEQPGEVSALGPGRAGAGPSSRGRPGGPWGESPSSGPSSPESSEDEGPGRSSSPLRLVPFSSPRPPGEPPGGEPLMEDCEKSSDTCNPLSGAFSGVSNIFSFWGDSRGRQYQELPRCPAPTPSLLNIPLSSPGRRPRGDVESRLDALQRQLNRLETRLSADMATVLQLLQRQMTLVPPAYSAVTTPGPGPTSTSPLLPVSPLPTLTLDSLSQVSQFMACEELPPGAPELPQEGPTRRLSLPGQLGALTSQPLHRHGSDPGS
Structure (SMILES),Ki (human 5-HT1A receptor [1]),Ki (human 5-HT2A receptor [2]),EC50 (human 5-HT1A receptor [3]),Emax at 10 µM (human 5-HT1A receptor [3]),IC50 (human 5-HT2A receptor [4]),Metabolic stability in human hepatic microsome [5],IC50 (hERG channel),Ki (human D2 receptor),D2 Ki/5-HT1A Ki (human D2 receptor),D2 Ki/5-HT2A Ki (human D2 receptor),IC50 (human 5-HT2A receptor [4]; aequorin luminescence),hERG inhibition IC50 (nmol/L)/5-HT1A Ki (nmol/L) (hERG channel; ratio of hERG IC50 to 5-HT1A Ki),hERG inhibition IC50 (nmol/L)/5-HT2A Ki (nmol/L) (hERG channel; ratio of hERG IC50 to 5-HT2A Ki)
"O=C1c2ncccc2CCN1CCN1CCN(c2noc3ccccc23)CC1 [Example 1, 7-{2-[4-(1,2-Benzoisoxazol-3-yl)piperazin-1-yl]ethyl}-6,7-dihydro-1,7-naphthyridin-8(5H)-one]",21.5 nM,49 nM,94.7 nM,50%,44.6 nM,<0.01 mL/min/mg protein,> 10000 nM,–,–,–,–,–,–
CC(C)c1ncc2c(n1)CCN(CCN1CCN(c3nsc4ccccc34)CC1)C2=O [Example 180],32.2 nM,4.28 nM,1260 nM,37%,–,0.469 mL/min/mg protein,–,1560 nM,48.3,363.5,72.7 nM,–,–
"Cc1cc2ccn(CCN3CCN(c4noc5ccccc45)CC3)c(=O)c2cn1 [Example 113, 2-{2-[4-(1,2-Benzoisoxazol-3-yl)piperazin-1-yl]ethyl}-6-methyl-2,7-naphthyridin-1(2H)-one]",14.4 nM,3.7 nM,16 nM,67%,8.63 nM,0.079 mL/min/mg protein,7000 nM,–,–,–,–,–,–
O=c1c2cncnc2ccn1CCN1CCC(c2noc3ccccc23)CC1 [Example 129],51.4 nM,20 nM,370 nM,31%,–,0.084 mL/min/mg protein,–,–,–,–,61.8 nM,–,–
Cn1cnc2c1C(=O)N(CCN1CCN(c3nsc4ccccc34)CC1)CC2 [Example 56],78 nM,0.11 nM,66.6 nM,58%,6 nM,0.195 mL/min/mg protein,7600 nM,–,–,–,–,–,–
Cn1ncc2c1C(=O)N(CCN1CCN(c3nsc4ccccc34)CC1)CCC2 [Example 47],16.9 nM,17.9 nM,92.2 nM,65%,4.96 nM,0.418 mL/min/mg protein,4000 nM,–,–,–,–,–,–
Cn1ncc2c1CCC(CCN1CCC(c3noc4ccccc34)CC1)C2=O (centres unmarked) [Example 28],13.8 nM,1.4 nM,7.59 nM,94%,9.8 nM,0.017 mL/min/mg protein,1400 nM,–,–,–,–,–,–
O=C1c2cnccc2CCN1CCN1CCN(c2nsc3ccccc23)CC1 [Example 18],10.6 nM,3.7 nM,18 nM,90%,36 nM,0.124 mL/min/mg protein,5900 nM,–,–,–,–,–,–
O=C1c2cccnc2CCN1CCN1CCC(c2noc3cc(F)ccc23)CC1 [Example 121],60.9 nM,105 nM,–,–,–,<0.05 mL/min/mg protein,< 300 nM,–,–,–,57.4 nM,–,–
"Cn1cnc2c1CCCN(CCN1CCC(c3noc4ccccc34)CC1)C2=O [Example 101, 5-{2-[4-(1,2-Benzoisoxazol-3-yl)piperidin-1-yl]ethyl}-1-methyl-5,6,7,8-tetrahydroimidazo[4,5-c]azepin-4(1H)-one]",60.1 nM,1.9 nM,612 nM,47%,46 nM,–,4100 nM,1020 nM,17,538,–,68,2165
O=C1c2ncccc2CCC1CCN1CCC(c2noc3ccccc23)CC1 (centres unmarked) [Example 24],13.2 nM,3.55 nM,63.2 nM,31%,33 nM,0.018 mL/min/mg protein,400 nM,–,–,–,–,–,–
COc1ccc2c(C3CCN(CCN4CCc5cccnc5C4=O)CC3)noc2c1 [Example 149],184 nM,217 nM,719 nM,16%,–,–,–,> 10000 nM,>54.3,>46.1,267 nM,–,–
Cn1cc2c(n1)CCN(CCN1CCC(c3noc4ccccc34)C1)C2=O (centres unmarked) [Example 174],78.1 nM,71.7 nM,193 nM,50%,–,–,–,> 10000 nM,>128.0,>139.5,723 nM,–,–
O=C1c2ncccc2CCN1CCN1CCN(c2noc3ccc(F)cc23)CC1 [Example 147],124 nM,124 nM,436 nM,–,–,–,–,> 10000 nM,–,–,415 nM,–,–
"Cc1noc2c1C(=O)N(CCN1CCN(c3noc4ccccc34)CC1)CC2 [Example 32, 5-{2-[4-(1,2-Benzoisoxazol-3-yl)piperazin-1-yl]ethyl}-3-methyl-6,7-dihydro[1,2]oxazolo[4,5-c]pyridin-4(5H)-one]",124 nM,60 nM,644 nM,39%,95 nM,<0.01 mL/min/mg protein,5500 nM,–,–,–,–,–,–
CC1(CCN2CCN(c3noc4ccccc34)CC2)CCc2cccnc2C1=O (centres unmarked) [Example 145],38.1 nM,1.15 nM,55.1 nM,58%,–,0.302 mL/min/mg protein,> 3000 nM,–,–,–,19 nM,–,–
Cc1noc2c1C(=O)N(CCN1CCC(c3noc4ccccc34)CC1)CCC2 [Example 38],13.5 nM,4.44 nM,395 nM,56%,24 nM,0.136 mL/min/mg protein,500 nM,–,–,–,–,–,–
